Measured values published in patent US9944597B2, “Polysubstituted pyrroles having microtubule-disrupting, cytotoxic and antitumor activities and methods of use thereof” (THE BOARD OF REGENTS OF THE UNIVERSITY OF TEXAS SYSTEM, priority 2013, dated 2018).
Read-outs that look alike come from different tables or passages of the source.

Tests used:
[1] = test system: MDA-MB-435 (human melanoma cancer cells); test: Antiproliferative SRB assay, MDA-MB-435; format: cell-based; details: Homo sapiens, MDA-MB-435, read-out: MDA-MB-435 Anti-Proliferative Activity, IC50
Method: (§1) Cell Culture. Various representative cancer and other cell lines were sourced and grown as described previously [Mooberry, S. L., et al., Mol. Pharm. 72, 132-140 (2007)]. MDA-MB-435 (human melanoma cancer cells), and MDA-MB-231 (human breast cancer cells) were grown in IMEM Richter's Medium (Life Technologies, Grand Island, N.Y.) with 10% FBS (Hyclone, Logan, Utah) and 25 μg/mL gentamicin sulfate (Life Technologies). A-10 (embryonic rat vascular smooth muscle cells) and HeLa (human cervical cancer cells), SK-OV-3 (human ovarian cancer cells) and SK-OV-3-MDR-1-M6/6 (a clone of the SK-OV-3 that was generated from SK-OV-3 cells by adenovirus-mediated expression of MDR1) were grown in Basal Medium Eagle (BME, Sigma-Aldrich, St. Louis, Mo.) containing Earle's salts, 50 μg/ml gentamicin sulfate, and 10% FBS. HeLa cells (a single-cell clone derived from transduction of HeLa cells with wild-type (WT) βIII-tubulin) were grown in Dulbecco's Modified Eagle's Medium (DMEM, Life Technologies) containing 50 μg/mL gentamicin sulfate and 10% FBS.
(§2) Antiproliferative Effects. The pyrrole compounds were evaluated for their antiproliferative effects in a panel of cancer cell lines. Cells were plated into 96-well plates at predetermined densities and allowed to attach and proliferate for 24 hr, and then the compounds were added. After a 48 hr exposure to the compounds, the cells were fixed with trichloroacetic acid and cellular protein was determined using the sulforhodamine B (SRB) assay (Skehan et al., J. Natl. Cancer Inst. 82, 1107-12, (1990); Boyd and Paull Drug Devel. Res. 34, 91-109, (1995)). Concentration response curves were constructed, and the IC50 (the concentration required to inhibit proliferation by 50%) values were determined from the linear portions of the log concentration-response curves as described previously [Tinley, T. L., et al., Cancer Res. 63, 3211-3220, (2003)] as shown in Table 48.

[2] = test system: HeLa (human cervical cancer cells); test: Antiproliferative SRB assay, HeLa; format: cell-based; details: Homo sapiens, HeLa
Method: as §1, §2
(§3) First, drug resistance mediated by the expression of βIII tubulin was evaluated in an isogenic HeLa cell line pair. Expression of the βIII tubulin isotype is associated with clinical drug resistance to the taxanes in ovarian cancer, non small-cell lung cancer and breast cancer [Galmarini, C. M., et al., Clin. Cancer Res. 14, 4511-4516 (2008)]. Secondly, drug resistance mediated by the expression of the drug efflux pump protein, Pgp, was evaluated in the isogenic SK-OV-3 cell line pair. The expression of Pgp can lead to lower intracellular drug concentrations and diminished cytotoxic effects both in vitro and in vivo. All tubulin-binding anticancer drugs used currently in the clinic, except cabazitaxel, are substrates for Pgp, thus limiting their utility in drug resistant tumors [Penson, R. T., et al., Gynecol. Oncol. 93, 98-106 (2004)]. Differences in sensitivity between the parent and transformed cell line, indicative of resistance, was determined by calculating relative resistance (Rr) values in the two pairs of isogenic cell lines (dividing the IC50 of the expressing cell line by the IC50 of the parental cell line).

[3] = test system: SK-OV-3 (human ovarian cancer cells); test: Antiproliferative SRB assay, SK-OV-3; format: cell-based; details: Homo sapiens
Method: as §1, §2
as §3, with “The expression of Pgp can lead to lower intracellular drug concentrations and diminished cytotoxic effects both in vitro and in vivo.” left out

HeLa WT-β-III cells = test: Antiproliferative SRB assay, βIII-tubulin expressing HeLa; format: cell-based, human; details: for IC50: Homo sapiens, HeLa, Table 49, βIII tubulin expressing line, 48 hr, SRB assay; for Rr (β-III): relative resistance: IC50 of expressing line divided by IC50 of parental HeLa
Method: as §1, §2, §3

SK-OV-3-MDR-1-6/6 cells = test: Antiproliferative SRB assay, Pgp expressing SK-OV-3; format: cell-based, human; details: for IC50: Homo sapiens, SK-OV-3, Table 49, Pgp expressing line, 48 hr, SRB assay; for Rr (Pgp): relative resistance: IC50 of expressing line divided by IC50 of parental SK-OV-3
Method: as §1, §2
as §3, with “The expression of Pgp can lead to lower intracellular drug concentrations and diminished cytotoxic effects both in vitro and in vivo.” left out

A-10 cells = test: Cellular microtubule loss by indirect immunofluorescence; format: cell-based, rat; details: Rattus norvegicus, A10; Table 50; concentration causing approximately 50% loss of interphase microtubules; read-out: EC50 Values (nM) for Microtubule Loss in A-10 cells
Method: The effects of representative compounds on cellular microtubules were evaluated in A-10 (embryonic rat vascular smooth muscle cell line) cells using indirect immunofluorescence techniques as previously described (Tinley et al., Cancer Res. 63, 3211-20 (2003)). Cells were visualized using a Nikon Eclipse 80i fluorescence microscope and NIS Elements software. Changes in both interphase and mitotic microtubules were noted and photographed. The EC50 values, the concentration that causes approximately 50% loss of interphase microtubules was determined by evaluating a range of concentrations of each compound and the percent cellular microtubule depolymerization that was observed visually at each concentration was noted.
Microtubules were visualized by indirect immunofluorescence using a β-tubulin antibody, and the DNA was visualized with DAPI. A representative concentration response curve for NT-7-16 is also shown in FIG. 1 that was used to calculate its corresponding EC50 for microtubule loss. Concentration response curves for microtubule loss were plotted using data from at least three experiments for each compound and the corresponding EC50 values for microtubule loss are presented in Table 50.

[4] = Table 48, 48 hr exposure, SRB assay
[5] = Table 48, 48 hr exposure, read-out: HeLa Anti-Proliferative Activity, IC50
[6] = Table 49, parental line, 48 hr, read-out: HeLa IC50
[7] = SK-OV-3, Table 48, 48 hr exposure, read-out: SK-OV-3 Anti-Proliferative Activity, IC50
[8] = SK-OV-3, Table 49, parental line, 48 hr, read-out: SK-OV-3 IC50

| Compound | IC50 [1, 4] [nM] | IC50 ([1]; Table 52) [nM] | IC50 [2, 5] [nM] | IC50 [2, 6] [nM] | IC50 [3, 7] [nM] | IC50 [3, 8] [nM] | IC50 (HeLa WT-β-III cells) [nM] | Rr (β-III) (HeLa WT-β-III cells) | IC50 (SK-OV-3-MDR-1-6/6 cells) [nM] | Rr (Pgp) (SK-OV-3-MDR-1-6/6 cells) | EC50 (A-10 cells) [nM] | melting point [°C] |
| --- | --- | --- | --- | --- | --- | --- | --- | --- | --- | --- | --- | --- |
| CCOC(=O)c1[nH]c(C=O)c(-c2ccc(OC)c(OC)c2OC)c1Cl [Example 3, 3-Chloro-4-(2,3,4-trimethoxyphenyl)-5-formyl-1H-pyrrole 2-carboxylic acid ethyl ester] | 64 ± 8.5 | 64 ± 8.5 | 43.5 ± 1.7 | 43.5 ± 1.7 | 67.8 ± 16.2 | 67.8 ± 16.2 | 106 ± 6.6 | 2.4 | 76 ± 22.9 | 1.1 | 107 | 193 to 195 |
| CCCNC=C1NC(C(=O)OCC)C(Cl)=C1c1ccc(OC)c(OC)c1OC (centres unmarked) [Example 18, 3-Chloro-5-(N-Propylaminomethylene)-4-(2,3,4-Trimethoxyphenyl)-1H-pyrrole 2-carboxylic acid ethyl ester] | 12.6 ± 0.4 | 12.6 ± 0.4 | 14.3 ± 0.8 | 14.3 ± 0.8 | 20.7 ± 1.9 | 20.7 ± 1.9 | 11.2 ± 0.4 | 0.8 | 19 ± 1 | 0.9 | 31 | 166 to 168 |
| CCOC(=O)c1[nH]c(C=NO)c(-c2ccc(OC)c(OC)c2OC)c1Cl (mixture of isomers) [Example 21, Cis/Trans-3-chloro-4-(2,3,4-trimethoxyphenyl)-5-oximino-1H-pyrrole 2-carboxylic acid ethyl ester] | 87.7 ± 10 | 87.7 ± 10 | 123 ± 6.5 | 123 ± 6.5 | 175 ± 30.4 | 175 ± 30.4 | 109 ± 9.5 | 0.9 | 419 ± 30.4 | 1.9 | 170 | 135 to 140 |
| CCOC(=O)c1[nH]c(C(=O)O)c(-c2ccc(OC)c(OC)c2OC)c1Br [Example 9, 3-Bromo-4-(2,3,4-trimethoxyphenyl)-5-carboxy-1H-pyrrole 2-carboxylic acid ethyl ester] | 1530 | 1530 | 2340 | 2340 |  |  |  |  |  |  | 4600 | 173 to 175 |
| CCOC(=O)c1[nH]c(C=O)c(-c2ccc(OC)c(OC)c2OC)c1I [Example 4, 3-Iodo-4-(2,3,4-trimethoxyphenyl)-5-formyl-1H-pyrrole 2-carboxylic acid ethyl ester] | 76 ± 0.6 | 76 ± 0.6 | 39.9 ± 3.1 | 39.9 ± 3.1 | 66.9 ± 5.8 | 66.9 ± 5.8 | 100 ± 2 | 2.5 | 87 ± 23.6 | 1.3 | 129 | 126 to 128 |
| CCOC(=O)c1[nH]c(CN)c(-c2ccc(OC)c(OC)c2OC)c1Br [Example 13, 5-(Aminomethylene)-3-Bromo-4-(2,3,4-trimethoxyphenyl)-1H-pyrrole 2-carboxylic acid ethyl ester] | 15.8 ± 0.9 | 15.8 ± 0.9 | 19.5 ± 0.6 | 19.5 ± 0.6 | 23.1 ± 1.8 | 23.1 ± 1.8 | 15.6 ± 0.4 | 0.8 | 22.4 ± 0.9 | 1.0 | 36 | 176 to 178 |
| CCOC(=O)c1[nH]c(CN)c(-c2ccc(OC)c(OC)c2OC)c1Cl [Example 14] | 13 ± 0.4 | 13 ± 0.4 | 15 ± 0.5 | 15 ± 0.5 | 27.8 ± 1.3 | 27.8 ± 1.3 | 12.3 ± 0.3 | 0.8 | 23.6 ± 1 | 0.8 | 35 | 143 to 145 |
| CCOC(=O)c1[nH]c(Cl)c(-c2ccc(OC)c(OC)c2OC)c1Cl [Example 23, 3,5-Dichloro-4-(2,3,4-Trimethoxyphenyl)-1H-pyrrole-2-carboxylic acid ethyl ester] | 116 ± 4.3 |  | 131 ± 8 | 131 ± 8 | 211 | 211 | 137 | 1.0 | 231 ± 118 | 1.1 | 1060 | 151 to 153 |
